# From ChEMBL document CHEMBL4477222, “Discovery of Novel Thiophene-Based, Thumb Pocket 2 Allosteric Inhibitors of the Hepatitis C NS5B Polymerase with Improved Potency and Physicochemical Profiles” (J Med Chem, 2016)
# Active and inactive are the calls of the source. The rule behind the calls is not given here.
# Key:
# [1] = Volume of distribution in steady state in dog at 1 mg/kg, iv through bolus administration; format: ADME, organism-based, Canis lupus familiaris; conditions: in vivo, read-out: Vdss
# Homo sapiens = species on record: Homo sapiens; assay: Inhibition of human DNA polymerase-gamma by radiometric assay
# [2] = Metabolic stability in dog liver microsomal S9 fraction assessed as compound remaining at 1 uM after 2 hrs in presence of NADPH/UDPGA; format: ADME, subcellular, Canis lupus familiaris; conditions: read-out: Stability
# [3] = Half life in dog at 1 mg/kg, iv through bolus administration; format: ADME, organism-based, Canis lupus familiaris; conditions: in vivo
# [4] = Half life in Fischer 344 rat at 3 mg/kg; format: ADME, organism-based; conditions: in vivo
# [5] = Permeability from basolateral to apical side in human Caco2 cells; format: ADME, cell-based; conditions: Caco-2, read-out: permeability
# [6] = tested on: Nonstructural protein 5A (Hepatitis C virus), Q5L478 [UNDEFINED MUTATION]; assay: Inhibition of BMS-790052-resistant HCV genotype 1b NS5A L31V mutant; conditions: Hepatitis C virus subtype 1b
# [7] = tested on: Nonstructural protein 5A (Hepatitis C virus), Q5L478 [UNDEFINED MUTATION]; assay: Inhibition of BMS-790052-resistant HCV genotype 1a NS5A Y93N mutant; conditions: Hepatitis C virus subtype 1a
# [8] = Drug excretion in rat bile; format: ADME, tissue-based; conditions: in vivo
# [9] = Drug excretion in rat feces; format: ADME; conditions: in vivo
# [10] = Metabolic stability in human liver microsomal S9 fraction assessed as compound remaining at 1 uM after 2 hrs in presence of NADPH/UDPGA; format: ADME, subcellular; conditions: read-out: Stability
# MDCK = assay: Ratio of permeability in MDCK cells expressing OATP1B1 to permeability in wild type MDCK cells; format: ADME, cell-based, Canis lupus familiaris; conditions: dog
# [11] = Metabolic stability in rat liver microsomal S9 fraction assessed as compound remaining at 1 uM after 2 hrs in presence of NADPH/UDPGA; format: ADME, subcellular; conditions: read-out: Stability
# Hepatocyte = assay: Change in CYP1A2 mRNA levels in hepatocytes (unknown origin); format: ADME, cell-based
# [12] = tested on: NS3 protease (Hepacivirus C), C1KIQ2 [R155K]; assay: Inhibition of telaprevir-resistant HCV NS3 protease R155K mutant; conditions: Hepacivirus hominis
# [13] = Half life in Sprague-Dawley rat at 1 mg/kg, iv through bolus administration; format: ADME, organism-based; conditions: in vivo
# [14] = molecular target: DNA polymerase alpha catalytic subunit (Homo sapiens) (UniProt P09884); assay: Inhibition of human DNA polymerase-alpha by fluorescence/radiometric assay
# DNA polymerase alpha catalytic subunit (Homo sapiens), sequence (P09884 whole entry): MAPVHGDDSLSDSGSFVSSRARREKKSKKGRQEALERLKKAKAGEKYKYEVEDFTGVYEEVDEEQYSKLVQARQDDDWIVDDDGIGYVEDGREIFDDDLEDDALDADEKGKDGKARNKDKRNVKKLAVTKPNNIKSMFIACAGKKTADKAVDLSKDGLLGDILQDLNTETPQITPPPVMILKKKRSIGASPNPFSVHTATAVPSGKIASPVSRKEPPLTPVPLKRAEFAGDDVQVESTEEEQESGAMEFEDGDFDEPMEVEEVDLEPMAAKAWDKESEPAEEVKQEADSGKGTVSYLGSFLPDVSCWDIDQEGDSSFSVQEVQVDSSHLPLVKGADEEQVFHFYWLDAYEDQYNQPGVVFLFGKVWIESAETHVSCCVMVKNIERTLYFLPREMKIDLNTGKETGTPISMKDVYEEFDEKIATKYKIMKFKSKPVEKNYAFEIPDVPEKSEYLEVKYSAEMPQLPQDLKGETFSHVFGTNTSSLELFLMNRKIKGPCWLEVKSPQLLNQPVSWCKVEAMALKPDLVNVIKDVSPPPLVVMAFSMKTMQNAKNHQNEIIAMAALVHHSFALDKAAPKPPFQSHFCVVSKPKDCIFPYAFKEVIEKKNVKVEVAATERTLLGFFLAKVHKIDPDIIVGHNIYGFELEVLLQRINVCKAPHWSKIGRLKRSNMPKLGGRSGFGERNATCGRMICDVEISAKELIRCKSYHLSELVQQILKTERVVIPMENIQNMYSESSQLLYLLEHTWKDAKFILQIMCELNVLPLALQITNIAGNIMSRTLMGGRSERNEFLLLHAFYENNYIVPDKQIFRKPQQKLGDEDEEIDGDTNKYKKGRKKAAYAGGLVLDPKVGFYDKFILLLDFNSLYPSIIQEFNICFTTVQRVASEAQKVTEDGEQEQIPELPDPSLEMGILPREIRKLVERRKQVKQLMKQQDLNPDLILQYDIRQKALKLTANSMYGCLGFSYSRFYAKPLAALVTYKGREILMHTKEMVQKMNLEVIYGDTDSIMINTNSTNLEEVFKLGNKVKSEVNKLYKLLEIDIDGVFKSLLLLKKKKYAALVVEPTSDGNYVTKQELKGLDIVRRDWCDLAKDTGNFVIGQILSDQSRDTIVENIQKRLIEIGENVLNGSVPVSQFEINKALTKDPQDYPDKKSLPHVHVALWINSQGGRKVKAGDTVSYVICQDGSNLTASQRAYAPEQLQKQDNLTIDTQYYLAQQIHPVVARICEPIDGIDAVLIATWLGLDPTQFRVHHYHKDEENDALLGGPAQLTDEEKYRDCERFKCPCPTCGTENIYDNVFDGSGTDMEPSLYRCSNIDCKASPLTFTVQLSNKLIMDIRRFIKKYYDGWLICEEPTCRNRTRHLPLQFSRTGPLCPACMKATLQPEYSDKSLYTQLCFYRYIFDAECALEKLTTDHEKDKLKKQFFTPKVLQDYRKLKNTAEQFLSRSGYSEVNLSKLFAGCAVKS
# [15] = AUC (0 to infinity) in Fischer 344 rat at 3 mg/kg, po; format: ADME, organism-based; design: dose 3 mg/kg, route oral, time infinity; conditions: in vivo
# [16] = tested on: Nonstructural protein 5A (Hepatitis C virus), Q5L478 [UNDEFINED MUTATION]; assay: Inhibition of BMS-790052-resistant HCV genotype 1a NS5A L31M mutant; conditions: Hepatitis C virus subtype 1a
# [17] = AUC (0 to infinity) in Fischer 344 rat at 1 mg/kg, iv through bolus administration; format: ADME, organism-based; design: dose 1 mg/kg, time infinity, route intravenous; conditions: in vivo
# [18] = tested on: Nonstructural protein 5A (Hepatitis C virus), Q5L478 [UNDEFINED MUTATION]; assay: Inhibition of BMS-790052-resistant HCV genotype 1a NS5A Q30H mutant; conditions: Hepatitis C virus subtype 1a
# [19] = Half life in monkey at 1 mg/kg, iv through bolus administration; format: ADME, organism-based, Macaca mulatta; conditions: rhesus monkey, in vivo
# [20] = molecular target: RNA-directed RNA polymerase (Hepacivirus hominis, UniProt O39930, M423T); assay: Inhibition of HCV genotype 1a NS5B M423T mutant; design: species or system Hepatitis C virus subtype 1a
# [21] = molecular target: CYP450 (family, isoform not stated) (Homo sapiens, UniProt P04798+P05177+P05181+P08684+P10632+P10635+P11509+P11712+P13584+P20813+P20815+P20853+P24462+P24903+P33260+P33261+P51589+P78329+P98187+Q02928+Q08477+Q16678+Q16696+Q5TCH4+Q6VVX0+Q7Z449+Q8TAV3+Q96SQ9+Q9HB55); assay: Inhibition of CYP450 (unknown origin); format: ADME, protein assay
# [22] = Clearance in Fischer 344 rat at 1 mg/kg, iv through bolus administration; format: ADME, organism-based; conditions: in vivo
# [23] = Cytotoxicity against human Huh7ET cells assessed as reduction in cell viability after 4 days; format: cell-based
# [24] = Drug uptake in Sprague-Dawley rat liver at 10 mg/kg, po administered as single dose; format: ADME, organism-based; conditions: in vivo
# [25] = Volume of distribution in steady state in Fischer 344 rat at 1 mg/kg, iv through bolus administration; format: ADME, organism-based; conditions: in vivo, read-out: Vdss
# [26] = Clearance in monkey at 1 mg/kg, iv through bolus administration; format: ADME, organism-based, Macaca mulatta; conditions: rhesus monkey, in vivo
# [27] = tested on: Nonstructural protein 5A (Hepatitis C virus), Q5L478 [UNDEFINED MUTATION]; assay: Inhibition of BMS-790052-resistant HCV genotype 1a NS5A Y93H mutant; conditions: Hepatitis C virus subtype 1a
# [28] = tested on: Nonstructural protein 5A (Hepatitis C virus), Q5L478 [UNDEFINED MUTATION]; assay: Inhibition of BMS-790052-resistant HCV genotype 1a NS5A M28T mutant; conditions: Hepatitis C virus subtype 1a
# [29] = Protein binding in dog liver at 1 uM; format: ADME, tissue-based, Canis lupus familiaris; conditions: read-out: PB (converted)
# [30] = molecular target: DNA polymerase beta (Homo sapiens) (UniProt P06746); assay: Inhibition of human DNA polymerase-beta by fluorescence/radiometric assay
# [31] = Cmax in dog at 3 mg/kg, po; format: ADME, organism-based, Canis lupus familiaris; design: dose 3 mg/kg, route oral; conditions: in vivo
# [32] = AUC (0 to infinity) in Sprague-Dawley rat at 1 mg/kg, iv through bolus administration; format: ADME, organism-based; design: dose 1 mg/kg, route intravenous, time infinity; conditions: in vivo
# [33] = Efflux ratio of permeability from basolateral to apical side over apical to basolateral side in human Caco2 cells; format: ADME, cell-based; conditions: Caco-2
# [34] = Half life in Sprague-Dawley rat at 3 mg/kg, po; format: ADME, organism-based; conditions: in vivo
# [35] = AUC (0 to infinity) in monkey at 1 mg/kg, iv through bolus administration; format: ADME, organism-based, Macaca mulatta; design: dose 1 mg/kg, route intravenous, time infinity; conditions: rhesus monkey, in vivo
# [36] = tested on: NS3 protease (Hepatitis C virus subtype 1b), Q0ZMF1 [A156S]; assay: Inhibition of telaprevir-resistant HCV NS3 protease A156S mutant; conditions: Hepacivirus hominis
# [37] = tested on: NS3 protease (Hepacivirus C), C1KIQ2 [T54A]; assay: Inhibition of telaprevir-resistant HCV NS3 protease T54A mutant; conditions: Hepacivirus hominis
# [38] = Cmax in Fischer 344 rat at 3 mg/kg, po; format: ADME, organism-based; design: dose 3 mg/kg, route oral; conditions: in vivo
# [39] = tested on: NS3 protease (Hepacivirus C), C1KIQ2 [R155T]; assay: Inhibition of telaprevir-resistant HCV NS3 protease R155T mutant; conditions: Hepacivirus hominis
# [40] = tested on: Hepatitis C virus subtype 1b; assay: Inhibition of HCV genotype 1b NS5B assessed as suppression of sub-genomic RNA levels after 96 hrs in presence of telaprevir by luciferase reporter gene assay
# [41] = Protein binding in rat plasma at 1 uM; format: ADME, cell-free; conditions: read-out: PPB (converted)
# [42] = Protein binding in human plasma at 1 uM; format: ADME, cell-free; conditions: read-out: PPB (converted)
# [43] = Volume of distribution in steady state in monkey at 1 mg/kg, iv through bolus administration; format: ADME, organism-based, Macaca mulatta; conditions: rhesus monkey, in vivo, read-out: Vdss
# [44] = Metabolic stability in monkey hepatocytes assessed as compound remaining at 10 uM after 2 hrs; format: ADME, cell-based, Macaca mulatta, Hepatocyte; conditions: rhesus monkey, read-out: Stability
# [45] = Protein binding in dog plasma at 1 uM; format: ADME, cell-free, Canis lupus familiaris; conditions: read-out: PPB (converted)
# [46] = Half life in dog at 3 mg/kg, po; format: ADME, organism-based, Canis lupus familiaris; conditions: in vivo
# [47] = Permeability from apical to basolateral side in human Caco2 cells; format: ADME, cell-based; conditions: Caco-2, read-out: permeability
# [48] = AUC (0 to infinity) in Sprague-Dawley rat at 3 mg/kg, po; format: ADME, organism-based; design: dose 3 mg/kg, route oral, time infinity; conditions: in vivo
smiles,measurement,setting,value
CC(C)(C)C#Cc1cc(N(CC(=O)N2CCOCC2)C(=O)[C@H]2CC[C@H](C)CC2)c(C(=O)O)s1,Vd,[1],1.57 L/kg
same,inhibition,Homo sapiens,inactive
same,"remaining at 2 h, 1 µM",[2],82%
same,half-life,[3],9.8 h
same,half-life,[4],2.1 h
same,Papp B→A,[5],9.8 ×10⁻⁶ cm/s
same,inhibition,[6],Active
same,inhibition,[7],Active
same,Drug excretion,[8],Metabolite_Detected
same,Drug excretion,[9],Metabolite_Detected
same,"remaining at 2 h, 1 µM",[10],73%
same,Ratio,MDCK,3
same,"remaining at 2 h, 1 µM",[11],79%
same,Activity,Hepatocyte,Non-Toxic
same,inhibition,[12],Active
same,half-life,[13],2.35 h
same,inhibition,[14],inactive
same,AUC(0-inf),[15],310 ng·h/mL
same,inhibition,[16],Active
same,AUC(0-inf),[17],1580 ng·h/mL
same,inhibition,[18],Active
same,half-life,[19],2.2 h
same,EC50,[20],0.28 µM
same,IC50,[21],> 40 µM
same,clearance,[22],13.8 mL/min/kg
same,CC50 at 96 h,[23],> 20 µM
same,Drug uptake,[24],Active
same,Vd,[25],0.86 L/kg
same,clearance,[26],9.9 mL/min/kg
same,inhibition,[27],Active
same,inhibition,[28],Active
same,fraction unbound at 1 µM,[29],0.14
same,inhibition,[30],inactive
same,Cmax,[31],1550 ng/mL
same,AUC,[32],4270 ng·h/mL
same,efflux ratio,[33],14
same,half-life,[34],3.04 h
same,AUC(0-inf),[35],1730 ng·h/mL
same,inhibition,[36],Active
same,inhibition,[37],Active
same,Cmax,[38],240 ng/mL
same,inhibition,[39],Active
same,inhibition,[40],Active
same,fraction unbound at 1 µM,[41],0.003
same,fraction unbound at 1 µM,[42],0.014
same,Vd,[43],0.23 L/kg
same,"remaining at 2 h, 10 µM",[44],30%
same,fraction unbound at 1 µM,[45],0.025
same,half-life,[46],6.6 h
same,Papp A→B,[47],0.7 ×10⁻⁶ cm/s
same,AUC(0-inf),[48],8860 ng·h/mL
